Consider 13 compounds from patent US20250289789A1, “REVERSIBLE LYSINE COVALENT MODIFIERS OF CDK2 AND USES THEREOF” (Terremoto Biosciences, Inc., priority 2023, published 2025).

In brackets after ≈: the same amount, converted by molar mass.

The first series is described as follows: Solubility determination in PBS pH 7.4. Conditions: aqueous buffer, kinetic from dmso stock; PBS pH 7.4, 2 hours, 25° C.; the listed prodrug. It is filed as physicochemical. The protocol: Stock solutions (10 mM DMSO, 30 μL) of each sample were placed into 96-well plate, along with 970 μL of PBS pH 7.4 were added into each vial of the cap-less solubility sample plate. The assay was performed in duplicate. A stir stick was added to each well and sealed using a molded PTFE/Silicone plug. Then the Solubility Sample plate was transferred to an Eppendorf Thermomixer Comfort plate shaker and shaken at 1100 RPM for 2 hours at 25° C. After completion the plugs and stir sticks were removed and the samples were transferred into a filter plate and filtered using a vacuum manifold. 5 μL aliquots of filtrate were taken and diluted with 5 μL DMSO and 490 μL of a 1:1 v/v mixture of H2O and acetonitrile. 200 μL of diluent was transferred to a new 96-well plate for LC-MS/MS analysis. The solution was analyzed and quantified against a standard of known concentration in DMSO using LC coupled with Mass spectral peak for identification and quantitation.
For `CCOC(=O)C/N=C/c1c(O)cc(OC)cc1OCC(=O)Nc1cc([C@H]2CC[C@@H](OC(=O)NC(C)C)C2)[nH]n1` [Compound 64p, Ethyl 2-(((E)-2-hydroxy-6-(2-((5-((1S,3R)-3-((isopropylcarbamoyl)oxy)cyclopentyl)-1H-pyrazol-3-yl)amino)-2-oxoethoxy)-4-methoxybenzylidene)amino)acetate], the solubility at 2 h came to 4.8 µM (≈ 2.62 µg/mL).
Same read-out and setting: to `COc1cc(O)c(/C=N/CCS(=O)(=O)O)c(OCC(=O)Nc2cc([C@H]3CC[C@@H](OC(=O)NC(C)C)C3)[nH]n2)c1` [Compound 64q, 2-(((E)-2-hydroxy-6-(2-((5-((1S,3R)-3-((isopropylcarbamoyl)oxy)cyclopentyl)-1H-pyrazol-3-yl)amino)-2-oxoethoxy)-4-methoxybenzylidene)amino)ethane-1-sulfonic acid] belongs 243 µM (≈ 138 µg/mL).
On the same count and under the same terms, to `CC(C)/N=C/c1c(O)cccc1OCC(=O)Nc1cc([C@H]2CC[C@@H](OC(=O)NC3(C)CC3)C2)[nH]n1` [Compound 82a, (1R,3S)-3-(3-(2-(3-hydroxy-2-((E)-(isopropylimino)methyl)phenoxy)acetamido)-1H-pyrazol-5-yl)cyclopentyl (1-methylcyclopropyl)carbamate] belongs 34 µM (≈ 16.4 µg/mL).
Same read-out and setting: for `COc1cc(O)c(/C=N/C(C)C)c(OCC(=O)Nc2cc([C@H]3CC[C@@H](OC(=O)NC(C)(C)C)C3)[nH]n2)c1` [Compound 128a, (1R,3S)-3-(3-(2-(3-hydroxy-2-((E)-(isopropylimino)methyl)-5-methoxyphenoxy)acetamido)-1H-pyrazol-5-yl)cyclopentyl tert-butylcarbamate] the value was 191 µM (≈ 98.5 µg/mL); for `Cc1cc(O)c(/C=N/C(C)C)c(OCC(=O)Nc2cc([C@H]3CC[C@@H](OC(=O)NC4(C)CC4)C3)[nH]n2)c1` [Compound 145a, (1R,3S)-3-(3-(2-(3-hydroxy-2-((E)-(isopropylimino)methyl)-5-methylphenoxy)acetamido)-1H-pyrazol-5-yl)cyclopentyl (1-methylcyclopropyl)carbamate], 68 µM (≈ 33.8 µg/mL).
In the case of `COc1cc(O)c(/C=N/C(C)C)c(OCC(=O)Nc2cc([C@H]3CC[C@@H](OC(=O)N(C)N(C)C)C3)[nH]n2)c1` [Compound 172a, (1R,3S)-3-(3-(2-(3-hydroxy-2-((E)-(isopropylimino)methyl)-5-methoxyphenoxy)acetamido)-1H-pyrazol-5-yl)cyclopentyl 1,2,2-trimethylhydrazine-1-carboxylate], the solubility at 2 h was determined as 227 µM (≈ 117 µg/mL).
On the same count and under the same terms, to `CCCNC(=O)O[C@@H]1CC[C@H](c2cc(NC(=O)COc3cc(OC)cc(O)c3/C=N/C(C)C)n[nH]2)C1` [Compound 221a, (1R,3S)-3-(3-(2-(3-hydroxy-2-((E)-(isopropylimino)methyl)-5-methoxyphenoxy)acetamido)-1H-pyrazol-5-yl)cyclopentyl propylcarbamate] belongs 156 µM (≈ 78.2 µg/mL).
Still for that read-out and setting: to `COc1cc(O)c(/C=N/C(C)C)c(OCC(=O)Nc2cc([C@H]3C[C@@H](OC(=O)NC(C)C)C3)[nH]n2)c1` [Compound 223a, (1s,3s)-3-(3-(2-(3-hydroxy-2-((E)-(isopropylimino)methyl)-5-methoxyphenoxy)acetamido)-1H-pyrazol-5-yl)cyclobutyl isopropylcarbamate] belongs 6.7 µM (≈ 3.27 µg/mL); to `COc1cc(O)c(/C=N/C(C)C)c(OCC(=O)Nc2cc([C@H]3CC[C@@H](OC(=O)NC4(C)CC4)C3)[nH]n2)c1` [Compound 251a, (1R,3S)-3-(3-(2-(3-hydroxy-2-((E)-(isopropylimino)methyl)-5-methoxyphenoxy)acetamido)-1H-pyrazol-5-yl)cyclopentyl (1-methylcyclopropyl)carbamate], 50 µM (≈ 25.7 µg/mL); to `CCC/N=C/c1c(O)cc(OC)cc1OCC(=O)Nc1cc([C@H]2CC[C@@H](OC(=O)NC3(C)CC3)C2)[nH]n1` [Compound 251b, (1R,3S)-3-(3-(2-(3-hydroxy-5-methoxy-2-((E)-(propylimino)methyl)phenoxy)acetamido)-1H-pyrazol-5-yl)cyclopentyl (1-methylcyclopropyl)carbamate], 41 µM (≈ 21.1 µg/mL).
The same measure, in the same setting: to `CC/N=C/c1c(O)cc(OC)cc1OCC(=O)Nc1cc([C@H]2CC[C@@H](OC(=O)NC3(C)CC3)C2)[nH]n1` [Compound 251c, (1R,3S)-3-(3-(2-(2-((E)-(ethylimino)methyl)-3-hydroxy-5-methoxyphenoxy)acetamido)-1H-pyrazol-5-yl)cyclopentyl (1-methylcyclopropyl)carbamate] belongs 48 µM (≈ 24 µg/mL).

The next series is described as follows: Oral bioavailability and pharmacokinetic analysis following oral administration in Nu/Nu mice. The conditions noted are these: male, in vivo. The protocol: Compound was administered via oral gavage in male Nu/Nu mice (n=3). The vehicle composition was 10% N-Methylpyrrolidone, 40% PEG300, 50% water (pH=4-8) at 6 mg-equivalent/mL to parent drug and a dose volume of 5 mL/Kg. Formulations were prepared freshly before dosing and stored at room temperature. Plasma samples were collected at the following time intervals: 0.5, 1, 2, 4, 8, 12, 24, 48, and 72 hours post dose (based on the start of oral dosing). Serial blood samples were collected (approximately 0.025 mL) via retro-orbital vein into K2EDTA. Whole blood was processed into plasma by centrifuge (4000 rpm for 5 minutes at 4° C.) followed by addition of 0.5 M ammonium formate (pH=3, 300% of plasma volume). Plasma samples were stored in a freezer at −75±15° C. until analysis. Plasma samples were analyzed after thawing and incubating for 1 h at 37° C. followed by protein precipitation with acetonitrile containing IS mixture (vortex 30 s, centrifugation at 4° C., 400 rpm for 15 min) and the resulting supernatant was further diluted with water before injecting onto Shimadzu 8060 LC-MS/MS system for analysis. Unknown plasma samples concentration was calibrated using standard range of 0.2 to 1 000 ng/mL for parent.
Bioavailability (% F) was calculated by comparing observed plasma concentrations of parent drug after oral administration of prodrug or parent drug to observed plasma concentrations via IV (intravenous) administration of parent drug.
For `COc1cc(O)c(/C=N/C(C)C)c(OCC(=O)Nc2cc([C@H]3CC[C@@H](OC(=O)N4C5COCC4C5)C3)[nH]n2)c1` [Compound 231a, (1R,3S)-3-(3-(2-(3-hydroxy-2-((E)-(isopropylimino)methyl)-5-methoxyphenoxy)acetamido)-1H-pyrazol-5-yl)cyclopentyl 3-oxa-6-azabicyclo[3.1.1]heptane-6-carboxylate], the “Prodrug Mouse % F” value amounted to 2.8%.
On the same count and under the same terms, for `COc1cc(O)c(/C=N/C(C)C)c(OCC(=O)Nc2cc([C@H]3CC[C@@H](OC(=O)N4CC5CC(C4)O5)C3)[nH]n2)c1` [Compound 235a, (1R,3S)-3-(3-(2-(3-hydroxy-2-((E)-(isopropylimino)methyl)-5-methoxyphenoxy)acetamido)-1H-pyrazol-5-yl)cyclopentyl 6-oxa-3-azabicyclo[3.1.1]heptane-3-carboxylate] the value was 3.2%.

Still in this series, the particulars now being: male, mouse, in vivo, 6 mg.
In the case of `COc1cc(O)c(/C=N/C(C)C)c(OCC(=O)Nc2cc([C@H]3CC[C@@H](OC(=O)N4C5COCC4C5)C3)[nH]n2)c1` [Compound 231a, (1R,3S)-3-(3-(2-(3-hydroxy-2-((E)-(isopropylimino)methyl)-5-methoxyphenoxy)acetamido)-1H-pyrazol-5-yl)cyclopentyl 3-oxa-6-azabicyclo[3.1.1]heptane-6-carboxylate], the “Prodrug AUCinf” value is 12.9 µM·h.
With `COc1cc(O)c(/C=N/C(C)C)c(OCC(=O)Nc2cc([C@H]3CC[C@@H](OC(=O)N4CC5CC(C4)O5)C3)[nH]n2)c1` [Compound 235a, (1R,3S)-3-(3-(2-(3-hydroxy-2-((E)-(isopropylimino)methyl)-5-methoxyphenoxy)acetamido)-1H-pyrazol-5-yl)cyclopentyl 6-oxa-3-azabicyclo[3.1.1]heptane-3-carboxylate], the “Prodrug AUCinf” value was 15.2 µM·h.
